Data published in ChEMBL document CHEMBL1201861, “Genomics of Drug Sensitity in Cancer screening data, Wellcome Trust Sanger Institute”.

Columns and labels:
Experiment in all cases: cells
[1] = system: COLO-792; assay type: functional, cell-based, Homo sapiens; conditions: Homo sapiens, COLO-792
Description: SANGER: Inhibition of human COLO-792 cell growth in a cell viability assay.

[2] = system: CTB-1; assay type: functional, cell-based; conditions: Homo sapiens
Description: SANGER: Inhibition of human CTB-1 cell growth in a cell viability assay.

[3] = system: D-247MG; assay type: functional, cell-based, Homo sapiens; conditions: Homo sapiens, D-247MG
Description: SANGER: Inhibition of human D-247MG cell growth in a cell viability assay.

[4] = system: DBTRG-05MG; assay type: functional, cell-based, Homo sapiens; conditions: Homo sapiens, DBTRG-05MG;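 also: cell viability assay measuring growth inhibition of human DBTRG-05MG cells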
Description: SANGER: Inhibition of human DBTRG-05MG cell growth in a cell viability assay.

[5] = system: DJM-1; assay type: functional, cell-based, Homo sapiens; conditions: Homo sapiens, DJM-1;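 also: growth inhibition of human DJM-1 cells, read out by a cell viability assay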
Description: SANGER: Inhibition of human DJM-1 cell growth in a cell viability assay.

[6] = system: Daoy; assay type: functional, cell-based, Homo sapiens; conditions: Homo sapiens, Daoy;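 also: daoy cell growth inhibition, read out as cell viability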
Description: SANGER: Inhibition of human Daoy cell growth in a cell viability assay.

[7] = system: EGI-1; assay type: functional, cell-based, Homo sapiens; conditions: Homo sapiens, EGI-1;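 also: cell viability readout used to gauge growth inhibition of EGI-1 cells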
Description: SANGER: Inhibition of human EGI-1 cell growth in a cell viability assay.

[8] = system: ES5; assay type: functional, cell-based, Homo sapiens; conditions: Homo sapiens, ES5;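 also: growth inhibition of human ES5 cells, read out by a cell viability assay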
Description: SANGER: Inhibition of human ES5 cell growth in a cell viability assay.

[9] = system: ETK-1; assay type: functional, cell-based, Homo sapiens; conditions: Homo sapiens, ETK-1;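 also: growth inhibition of human ETK-1 cells, read out with a cell viability assay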
Description: SANGER: Inhibition of human ETK-1 cell growth in a cell viability assay.

[10] = system: G-402; assay type: functional, cell-based, Homo sapiens; conditions: Homo sapiens, G-402
Description: SANGER: Inhibition of human G-402 cell growth in a cell viability assay.

[11] = system: GB-1; assay type: functional, cell-based, Homo sapiens; conditions: Homo sapiens, GB-1;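 also: growth of GB-1 cells judged by a viability assay, IC50 marks the concentration inhibiting growth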
Description: SANGER: Inhibition of human GB-1 cell growth in a cell viability assay.

[12] = system: GCT; assay type: functional, cell-based, Homo sapiens; conditions: Homo sapiens, GCT;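 also: GCT cell line proliferation inhibition, read out with a cell viability assay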
Description: SANGER: Inhibition of human GCT cell growth in a cell viability assay.

[13] = system: GR-ST; assay type: functional, cell-based; conditions: Homo sapiens
Description: SANGER: Inhibition of human GR-ST cell growth in a cell viability assay.

[14] = system: HuTu80; assay type: functional, cell-based, Homo sapiens, HUTU-80; conditions: Homo sapiens, HuTu80;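 also: growth inhibition of HuTu80 human cells, determined with a cell viability readout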
Description: SANGER: Inhibition of human HUTU-80 cell growth in a cell viability assay.

[15] = system: HuO-3N1; assay type: functional, cell-based, Homo sapiens; conditions: Homo sapiens, HuO-3N1;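 also: cell viability readout used to measure how strongly compounds suppress proliferation of human HuO-3N1 cells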
Description: SANGER: Inhibition of human HuO-3N1 cell growth in a cell viability assay.

[16] = system: JAR; assay type: functional, cell-based, Homo sapiens; conditions: Homo sapiens, JAR;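 also: growth inhibition of human JAR cells determined with a cell viability assay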
Description: SANGER: Inhibition of human JAR cell growth in a cell viability assay.

[17] = system: KARPAS-45; assay type: functional, cell-based; conditions: Homo sapiens;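 also: inhibition of cell line growth, read out through a viability assay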
Description: SANGER: Inhibition of human KARPAS-45 cell growth in a cell viability assay.

[18] = system: KG-1; assay type: functional, cell-based; conditions: Homo sapiens;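 also: growth inhibition of KG-1 cells, read out by a cell viability assay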
Description: SANGER: Inhibition of human KG-1 cell growth in a cell viability assay.

[19] = system: KM-H2; assay type: functional, cell-based; conditions: Homo sapiens;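 also: growth inhibition of KM-H2 cells, read out by a cell viability assay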
Description: SANGER: Inhibition of human KM-H2 cell growth in a cell viability assay.

[20] = system: KURAMOCHI; assay type: functional, cell-based; conditions: Homo sapiens;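 also: growth inhibition of KURAMOCHI cells, read out with a cell viability assay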
Description: SANGER: Inhibition of human KURAMOCHI cell growth in a cell viability assay.

[21] = system: KYSE-410; assay type: functional, cell-based, Homo sapiens; conditions: Homo sapiens, KYSE-410;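 also: growth inhibition of KYSE-410 cells, measured through a cell viability readout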
Description: SANGER: Inhibition of human KYSE-410 cell growth in a cell viability assay.

[22] = system: LB831-BLC; assay type: functional, cell-based, Homo sapiens; conditions: Homo sapiens, LB831-BLC;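 also: growth inhibition of LB831-BLC cells, read out with a cell viability assay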
Description: SANGER: Inhibition of human LB831-BLC cell growth in a cell viability assay.

[23] = system: LC-2-ad; assay type: functional, cell-based, Homo sapiens; conditions: Homo sapiens, LC-2-ad;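 also: growth inhibition of human LC-2-ad cells, read out with a cell viability assay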
Description: SANGER: Inhibition of human LC-2-ad cell growth in a cell viability assay.

[24] = system: LN-405; assay type: functional, cell-based, Homo sapiens; conditions: Homo sapiens, LN-405
Description: SANGER: Inhibition of human LN-405 cell growth in a cell viability assay.

[25] = system: LoVo; assay type: functional, cell-based; conditions: Homo sapiens;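 also: growth inhibition of human LoVo cells, read out with a cell viability assay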
Description: SANGER: Inhibition of human LoVo cell growth in a cell viability assay.

[26] = system: MC116; assay type: functional, cell-based; conditions: Homo sapiens;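 also: growth inhibition of MC116 cells, read out with a cell viability assay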
Description: SANGER: Inhibition of human MC116 cell growth in a cell viability assay.

[27] = system: MOLT-16; assay type: functional, cell-based; conditions: Homo sapiens;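 also: growth inhibition of human MOLT-16 cells, read out with a cell viability assay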
Description: SANGER: Inhibition of human MOLT-16 cell growth in a cell viability assay.

[28] = system: MSTO-211H; assay type: functional, cell-based, Homo sapiens; conditions: Homo sapiens, MSTO-211H
Description: SANGER: Inhibition of human MSTO-211H cell growth in a cell viability assay.

[29] = system: MV4-11; assay type: functional, cell-based, MV-4-11; conditions: Homo sapiens;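 also: cell viability readout measuring growth inhibition of human MV-4-11 cells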
Description: SANGER: Inhibition of human MV-4-11 cell growth in a cell viability assay.

[30] = system: NB5; assay type: functional, cell-based, Homo sapiens; conditions: Homo sapiens, NB5;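 also: growth inhibition of NB5 cells, read out as cell viability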
Description: SANGER: Inhibition of human NB5 cell growth in a cell viability assay.

[31] = system: NB7; assay type: functional, cell-based; conditions: Homo sapiens;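 also: growth inhibition of NB7 cells, read out with a cell viability assay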
Description: SANGER: Inhibition of human NB7 cell growth in a cell viability assay.

[32] = system: NCI-H1092; assay type: functional, cell-based; conditions: Homo sapiens;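 also: cell growth inhibition measured with a cell viability assay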
Description: SANGER: Inhibition of human NCI-H1092 cell growth in a cell viability assay.

[33] = system: NCI-H1650; assay type: functional, cell-based, Homo sapiens; conditions: Homo sapiens, NCI-H1650;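 also: growth inhibition of human NCI-H1650 cells measured by a cell viability assay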
Description: SANGER: Inhibition of human NCI-H1650 cell growth in a cell viability assay.

[34] = system: NCI-H2342; assay type: functional, cell-based; conditions: Homo sapiens;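 also: growth inhibition of the cancer cell line, determined with a cell viability assay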
Description: SANGER: Inhibition of human NCI-H2342 cell growth in a cell viability assay.

[35] = system: NCI-H526; assay type: functional, cell-based; conditions: Homo sapiens;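 also: growth inhibition of the human NCI-H526 cell line, measured by a cell viability assay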
Description: SANGER: Inhibition of human NCI-H526 cell growth in a cell viability assay.

[36] = system: NOMO-1; assay type: functional, cell-based; conditions: Homo sapiens;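 also: growth inhibition of human NOMO-1 cells measured by a cell viability assay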
Description: SANGER: Inhibition of human NOMO-1 cell growth in a cell viability assay.

[37] = system: OAW-28; assay type: functional, cell-based, Homo sapiens; conditions: Homo sapiens, OAW-28;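 also: growth inhibition of OAW-28 cells, read out with a cell viability assay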
Description: SANGER: Inhibition of human OAW-28 cell growth in a cell viability assay.

[38] = system: RMG-I; assay type: functional, cell-based, Homo sapiens; conditions: Homo sapiens, RMG-I;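 also: growth inhibition of human RMG-I cells, read out with a cell viability assay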
Description: SANGER: Inhibition of human RMG-I cell growth in a cell viability assay.

[39] = system: RVH-421; assay type: functional, cell-based, Homo sapiens; conditions: Homo sapiens, RVH-421
Description: SANGER: Inhibition of human RVH-421 cell growth in a cell viability assay.

[40] = system: SCC-15; assay type: functional, cell-based, Homo sapiens; conditions: Homo sapiens, SCC-15;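 also: growth inhibition of SCC-15 cells, read out with a cell viability assay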
Description: SANGER: Inhibition of human SCC-15 cell growth in a cell viability assay.

[41] = system: SF-126; assay type: functional, cell-based, Homo sapiens; conditions: Homo sapiens, SF-126;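 also: growth inhibition of human SF126 cells, read out with a cell viability assay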
Description: SANGER: Inhibition of human SF126 cell growth in a cell viability assay.

[42] = system: SK-MEL-24; assay type: functional, cell-based; conditions: Homo sapiens;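 also: growth inhibition read out by a cell viability assay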
Description: SANGER: Inhibition of human SK-MEL-24 cell growth in a cell viability assay.

[43] = system: SW-620; assay type: functional, cell-based, Homo sapiens; conditions: Homo sapiens, SW-620;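 also: growth inhibition of human SW-620 cells, measured by a cell viability assay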
Description: SANGER: Inhibition of human SW620 cell growth in a cell viability assay.

[44] = system: SW684; assay type: functional, cell-based, Homo sapiens; conditions: Homo sapiens, SW684;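 also: growth inhibition of human SW684 cells, measured by a cell viability assay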
Description: SANGER: Inhibition of human SW684 cell growth in a cell viability assay.

[45] = system: SW 962; assay type: functional, cell-based, Homo sapiens; conditions: Homo sapiens, SW 962;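 also: growth inhibition of human SW962 cells, read out by a cell viability assay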
Description: SANGER: Inhibition of human SW962 cell growth in a cell viability assay.

[46] = system: SiHa; assay type: functional, cell-based, Homo sapiens; conditions: Homo sapiens, SiHa;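 also: Viability-based readout of growth inhibition in SiHa cells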
Description: SANGER: Inhibition of human SiHa cell growth in a cell viability assay.

[47] = system: 8305C; assay type: functional, cell-based, Homo sapiens; conditions: Homo sapiens, 8305C
Description: SANGER: Inhibition of human 8305C cell growth in a cell viability assay.

[48] = system: BB49-HNC; assay type: functional, cell-based, Homo sapiens; conditions: Homo sapiens, BB49-HNC;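 also: cell viability assay read-out, reported as inhibition of BB49-HNC cell growth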
Description: SANGER: Inhibition of human BB49-HNC cell growth in a cell viability assay.

[49] = system: BT-20; assay type: functional, cell-based, Homo sapiens; conditions: Homo sapiens, BT-20;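 also: cell viability assay measuring suppression of growth in human BT-20 cells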
Description: SANGER: Inhibition of human BT-20 cell growth in a cell viability assay.

[50] = system: TE-6; assay type: functional, cell-based, Homo sapiens; conditions: Homo sapiens, TE-6;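 also: growth inhibition of TE-6 cells, read out with a cell viability assay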
Description: SANGER: Inhibition of human TE-6 cell growth in a cell viability assay.

[51] = system: TGBC24TKB; assay type: functional, cell-based, Homo sapiens; conditions: Homo sapiens, TGBC24TKB;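 also: growth inhibition of human TGBC24TKB cells, read out with a cell viability assay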
Description: SANGER: Inhibition of human TGBC24TKB cell growth in a cell viability assay.

[52] = system: UACC-893; assay type: functional, cell-based, Homo sapiens; conditions: Homo sapiens, UACC-893
Description: SANGER: Inhibition of human UACC-893 cell growth in a cell viability assay.

[53] = system: COLO-320-HSR; assay type: functional, cell-based; conditions: Homo sapiens;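 also: growth inhibition of COLO-320-HSR cells, determined with a cell viability assay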
Description: SANGER: Inhibition of human COLO-320-HSR cell growth in a cell viability assay.

SMILES: Cn1cc(C2=C(c3ccc(Cl)cc3Cl)C(=O)NC2=O)c2ccccc21 [SB-216763]
- IC50 [1]: > 10 µM
- IC50 [2]: > 10 µM
- IC50 [3]: > 10 µM
- IC50 [4]: > 10 µM
- IC50 [5]: > 10 µM
- IC50 [6]: > 10 µM
- IC50 [7]: > 10 µM
- IC50 [8]: > 10 µM
- IC50 [9]: > 10 µM
- IC50 [10]: > 10 µM
- IC50 [11]: > 10 µM
- IC50 [12]: > 10 µM
- IC50 [13]: > 10 µM
- IC50 [14]: > 10 µM
- IC50 [15]: > 10 µM
- IC50 [16]: 1.21 µM
- IC50 [17]: > 10 µM
- IC50 [18]: > 10 µM
- IC50 [19]: > 10 µM
- IC50 [20]: > 10 µM
- IC50 [21]: > 10 µM
- IC50 [22]: > 10 µM
- IC50 [23]: > 10 µM
- IC50 [24]: > 10 µM
- IC50 [25]: > 10 µM
- IC50 [26]: > 10 µM
- IC50 [27]: > 10 µM
- IC50 [28]: > 10 µM
- IC50 [29]: 2.7 µM
- IC50 [30]: > 10 µM
- IC50 [31]: > 10 µM
- IC50 [32]: > 10 µM
- IC50 [33]: > 10 µM
- IC50 [34]: > 10 µM
- IC50 [35]: 0.0489 µM
- IC50 [36]: > 10 µM
- IC50 [37]: > 10 µM
- IC50 [38]: > 10 µM
- IC50 [39]: > 10 µM
- IC50 [40]: > 10 µM
- IC50 [41]: > 10 µM
- IC50 [42]: > 10 µM
- IC50 [43]: > 10 µM
- IC50 [44]: > 10 µM
- IC50 [45]: > 10 µM
- IC50 [46]: > 10 µM
- IC50 [47]: > 10 µM
- IC50 [48]: > 10 µM
- IC50 [49]: > 10 µM
- IC50 [50]: > 10 µM
- IC50 [51]: > 10 µM
- IC50 [52]: > 10 µM
- IC50 [53]: > 10 µM

SMILES: C=CCNC1=C2C[C@@H](C)C[C@H](OC)[C@H](O)[C@@H](C)/C=C(\C)[C@H](OC(N)=O)[C@@H](OC)/C=C\C=C(/C)C(=O)NC(=CC1=O)C2=O [TANESPIMYCIN]
- IC50 [1]: 0.313 µM
- IC50 [2]: 0.328 µM
- IC50 [3]: 0.0945 µM
- IC50 [4]: 0.581 µM
- IC50 [5]: > 1 µM
- IC50 [6]: 0.317 µM
- IC50 [7]: > 1 µM
- IC50 [8]: > 1 µM
- IC50 [9]: 0.159 µM
- IC50 [10]: 0.0479 µM
- IC50 [11]: > 1 µM
- IC50 [12]: > 1 µM
- IC50 [13]: > 1 µM
- IC50 [14]: > 1 µM
- IC50 [15]: 0.0524 µM
- IC50 [16]: > 1 µM
- IC50 [17]: 0.379 µM
- IC50 [18]: > 1 µM
- IC50 [19]: > 1 µM
- IC50 [20]: 0.952 µM
- IC50 [21]: 0.0477 µM
- IC50 [22]: 0.139 µM
- IC50 [23]: 0.141 µM
- IC50 [24]: 0.417 µM
- IC50 [25]: > 1 µM
- IC50 [26]: > 1 µM
- IC50 [27]: > 1 µM
- IC50 [28]: 0.558 µM
- IC50 [29]: 0.068 µM
- IC50 [30]: > 1 µM
- IC50 [31]: > 1 µM
- IC50 [32]: > 1 µM
- IC50 [33]: 0.201 µM
- IC50 [34]: > 1 µM
- IC50 [35]: > 1 µM
- IC50 [36]: > 1 µM
- IC50 [37]: > 1 µM
- IC50 [38]: > 1 µM
- IC50 [39]: 0.191 µM
- IC50 [40]: > 1 µM
- IC50 [41]: > 1 µM
- IC50 [42]: 0.139 µM
- IC50 [43]: 0.0703 µM
- IC50 [44]: 0.0659 µM
- IC50 [45]: 0.0395 µM
- IC50 [46]: 0.105 µM
- IC50 [47]: 0.725 µM
- IC50 [48]: 0.0424 µM
- IC50 [49]: > 1 µM
- IC50 [50]: 0.257 µM
- IC50 [51]: > 1 µM
- IC50 [52]: 0.637 µM
- IC50 [53]: > 1 µM
